# Tested on: WI-38
# Assay: In vitro cytotoxicity against normal cell line WI-38
# Type: cell-based
# Conditions: Homo sapiens, WI-38, read-out: IC50 WI38
compound,measurement,value
"CN1CCC2(CC1)C/C(=N\N=C\c1ccc(Cl)cc1)c1ccccc1O2 [Compound 4a, (E)-4-[(E)-(4-Chlorobenzylidene)hydrazono]-1′-methylspiro(chroman-2,4′-piperidine)]",IC50,75.7 ± 4.3 µM
"CN1CCC2(CC1)C/C(=N\N=C\c1ccc(N(C)C)cc1)c1ccccc1O2 [Compound 4b, N,N-Dimethyl-4-((E)-{(E)-[1′-methylspiro(chroman-2,4′-piperidin)-4-ylidene]hydrazono}methyl)aniline]",IC50,60.4 ± 3.7 µM
"CN(C)C/C=C/C(=O)Nc1cc2c(Nc3ccc(F)c(Cl)c3)ncnc2cc1O[C@H]1CCOC1 [Afatinib, reference compound]",IC50,49.5 ± 2.5 µM
"CCN1CCC2(CC1)C/C(=N\N=C\c1ccc(N(C)C)cc1)c1ccccc1O2 [Compound 4c, 4-((E)-{(E)-[1′-Ethylspiro(chroman-2,4′-piperidin)-4-ylidene]hydrazono}methyl)-N,N-dimethylaniline]",IC50,55.3 ± 3.3 µM
"CN1CCC2(CC1)C/C(=N\N=C\c1ccc(O)cc1)c1ccccc1O2 [Compound 4d, 4-((E)-{(E)-[1′-Methylspiro(chroman-2,4′-piperidin)-4-ylidene]hydrazono}methyl)phenol]",IC50,33.3 ± 2.3 µM

# From article PMC10582582 (Saudi Pharmaceutical Journal : SPJ, 2023)
